The values below come from patent US6380181B1, “Synthetic catechol derivatives, method for production and use thereof” (priority 1996, dated 2002).

Format in all cases: cell-based
Assay [1] relates to Pseudomonas aeruginosa 690. A digest of the protocol:
(§1)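 Growth-promotion test in siderophore-biosynthesis or iron-transport-deficient indicator mutants under iron-limiting conditions. Controls: ferrioxamine E (Pseudomonas), ferrioxamine G and enterobactin (Salmonella), ferrichrome (E. coli). + and (+) denote non-specific growth promotion.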

Assay [2] has as its system Klebsiella pneumoniae KN 4401. As to conditions: Klebsiella KN 4401. A digest of the protocol:
as §1

Assay [3] deals with Proteus mirabilis 12 (wild). A digest of the protocol:
as §1

For assay [4], the system named is Salmonella typhimurium enb-7. A digest of the protocol:
as §1

In assay [5] the test system is E. coli AB 2847. A digest of the protocol: as §1
Assay [6] has as its system Pseudomonas aeruginosa PAO 6609. A digest of the protocol: as §1
The subject of assay [7] is Morganella morganii SBK3 (wild). A digest of the protocol: as §1
The test system of assay [8] is Yersinia enterocolitica WAH. Particulars: Y. enterocol. WAH.
Assay [9] relates to Proteus vulgaris 718 (wild). A digest of the protocol:
as §1

Assay [10] concerns Pseudomonas aeruginosa K 407. As to conditions: Pseudomonas aeruginosa K407. A digest of the protocol: as §1
In assay [11] the test system is Salmonella typhimurium TA 2700. A digest of the protocol: as §1
Assay [12] concerns E. coli mutant KB4 ompF−. The source says: (§2) The efficacy against β-lactamase formers and against multi-resistant germs is therefore due to a new type of mechanism for overcoming the penetration resistance, by means of which the ratio of active ingredient to enzyme in the bacterial cell is influenced so that not all antibiotic molecules are inactivated before they reach their target.

The test system of assay [13] is E. coli mutant KB5 ompC−.
Text: as §2

The subject of assay [14] is E. coli mutant PLB3268 ompF++. Particulars: E. coli mutant PLB3268 ompF++ (ompF super-expressed).
Text: as §2
PLB268: ompF- was super-expressed.

Assay [15] deals with Stenotrophomonas maltophilia GN 12873. Briefly: Agar diffusion test. Particulars: concentration 100 μg/ml. Background: Agar diffusion results depend on both activity and mobility in agar.
Assay [16] relates to Salmonella gallinarum ATCC 9184. As to the kind of experiment: microbe, parasite or virus in culture. As to conditions: Salmonella gallinarum ATCC9184. The protocol: (§3) The minimum inhibiting concentrations (MICs) were determined for the following bacterial strains: Pseudomonas aeruginosa NCTC 10701, NCTC 10662, SG 137, ATCC 27853, KW 799 WT and KW 799/61, E. coli DCO, DC2 and ATCC 25922, Serratia marcescens SG 621; Salmonella gallinarum ATCC 9184, Klebsiella pneumoniae ATCC 10031 and SG 117.

Assay [17] deals with Pseudomonas aeruginosa KW 799 WT (wild type). Briefly: Agar diffusion test. Particulars: concentration 100 μg/ml; P. aeruginosa KW799/WT.
Assay [18] deals with Pseudomonas aeruginosa SG 137 (carbenicillin-resistant). Briefly: Agar diffusion test. As to conditions: concentration 100 μg/ml; P. aeruginosa SG 137.
The test system of assay [19] is Klebsiella pneumoniae SG 117. Briefly: Agar diffusion test. Particulars: concentration 100 μg/ml.
For assay [20], the system named is Pseudomonas aeruginosa KW 799/61 (penetration mutant). Particulars: concentration 100 μg/ml; P. aeruginosa KW799/61.
Assay [21] deals with Pseudomonas aeruginosa KW 799/61. Briefly: Microdilution test (MIC). A digest of the protocol:
(§4)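 Broth microdilution MIC determination; paired strains (Pseudomonas KW 799 WT vs /61, E. coli DC0 vs DC2) used to assess the effect of improved penetration capacity on compound efficacy.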
(In broth dilution the organism is exposed to a series of concentrations in liquid medium.)

Assay [22] relates to Pseudomonas aeruginosa KW 799 WT. As to the kind of experiment: Microdilution test (MIC). As to conditions: P. aeruginosa KW 799/WT. A digest of the protocol:
as §4

The subject of assay [23] is E. coli mutant BR185 tonB−.
For assay [24], the system named is E. coli DC2. Briefly: microbe, parasite or virus in culture. A digest of the protocol:
as §4

Assay [25] relates to Pseudomonas aeruginosa ATCC 9027 (wild type). As to the kind of experiment: Agar diffusion test. As to conditions: concentration 100 μg/ml; P. aeruginosa ATCC 9027.
The subject of assay [26] is Pseudomonas aeruginosa Oxa6 (plasmid-coded β-lactamase). As to conditions: concentration 100 μg/ml; P. aeruginosa OXA 6.
For assay [27], the system named is Pseudomonas aeruginosa NCTC 10662. Briefly: Agar diffusion test. As to conditions: concentration 100 μg/ml; P. aeruginosa NCTC 10662.
Assay [28] concerns E. coli AB2847 tonB+.
In assay [29] the test system is Klebsiella pneumoniae SG 117. As to the kind of experiment: Microdilution test (MIC). The protocol: as §3
Assay [30] deals with Pseudomonas aeruginosa SG 137. Briefly: Microdilution test (MIC). As to conditions: P. aeruginosa SG 137. The protocol:
as §3

The subject of assay [31] is Serratia marcescens SG 621. As to the kind of experiment: Microdilution test (MIC). The protocol:
as §3

Assay [32] concerns Pseudomonas aeruginosa NCTC 10701. Briefly: Microdilution test (MIC). Particulars: P. aeruginosa NCTC 10701. The protocol:
as §3

In assay [33] the test system is Stenotrophomonas maltophilia IMET 10402. As to the kind of experiment: Agar diffusion test. As to conditions: concentration 100 μg/ml.
Assay [34] relates to E. coli DC0 (wild type). Briefly: Agar diffusion test. Particulars: concentration 100 μg/ml.
For assay [35], the system named is E. coli DC2 (penetration mutant). As to conditions: concentration 100 μg/ml.
The subject of assay [36] is Pseudomonas aeruginosa NPS1 (plasmid-coded β-lactamase). As to conditions: concentration 100 μg/ml; P. aeruginosa NPS 1.
Assay [37] relates to Salmonella gallinarum ATCC 9184. Particulars: concentration 100 μg/ml; Salmonella galinarum ATCC 9184.
Assay [38] has as its system Pseudomonas aeruginosa NCTC 10701. Briefly: Agar diffusion test. Particulars: concentration 100 μg/ml; P. aeruginosa NCTC 10701.
For assay [39], the system named is Pseudomonas aeruginosa ATCC 27853. Briefly: Microdilution test (MIC). As to conditions: P. aeruginosa ATCC 27853. The protocol:
as §3

Assay [40] has as its system E. coli ATCC 25922. As to the kind of experiment: Microdilution test (MIC). The protocol:
as §3

Assay [41] deals with Klebsiella pneumoniae ATCC 10031. As to the kind of experiment: Microdilution test (MIC). The protocol:
as §3

Values after ≈ are worked out from the molar mass of the structure shown.

Consider `O=C(O)c1ccc(N=Cc2cccc(O)c2O)c(O)c1` [Substance 5], for which the “Growth areas of siderophore indicator strains (diameter)” value (from here on “Growth areas”) is recorded as 0 mm in [1]; 0 mm in assay [2]; 19 mm in [3]; 0 mm in [4]; 15 mm in assay [5]; 0 mm in assay [6]. For the same compound, the “Growth areas” value is reported as 21 mm in [7]; 0 mm in assay [8]; 21 mm in [9]; 0 mm in [10]; 0 mm in assay [11].

In the case of `CC(=O)Oc1cccc(C(=O)Nc2ccccc2C(=O)N[C@@H](C(=O)N[C@@H]2C(=O)N3[C@@H]2SC(C)(C)[C@@H]3C(=O)O)c2ccccc2)c1OC(C)=O` [Substance 28, N-[2-(2,3-Diacetoxybenzoylamino)-benzoyl]-ampicillin], the “inhibition spot diameter in agar diffusion test” value amounted to 11.5 mm in [12]; 11 mm in assay [13]; 13 mm in assay [14]; 0 mm in assay [23]; 8.5 mm in assay [28]. The “inhibition spot diameter in the agar diffusion test” value in [15] is recorded as 20 mm; in assay [17], 27 mm; in assay [18] it was 20 mm; in assay [19], 17 mm; in assay [20], 31 mm; in [25], 18 mm. The “inhibition spot diameter in the agar diffusion test” value in assay [26] was 19 mm; in assay [27] it was 17 mm; in assay [33] it was 24 mm; in assay [34] it was 23 mm; in assay [35] it was 27 mm; in assay [36], 18 mm. The “MIC values, microdilution test” value in assay [16] is 1.56 µg/mL (≈ 2.27 µM); in assay [21] it was 0.4 µg/mL (≈ 0.581 µM); in [22], 1.56 µg/mL (≈ 2.27 µM); in assay [24] it was 0.4 µg/mL (≈ 0.581 µM); in assay [29], 25 µg/mL (≈ 36.3 µM); in assay [30], 1.56 µg/mL (≈ 2.27 µM). Moreover, the “MIC values, microdilution test” value was 6.25 µg/mL (≈ 9.07 µM) in assay [31] and 0.78 µg/mL (≈ 1.13 µM) in [32].

Consider `CC(=O)Oc1cccc(C(=O)N[C@@H](C)C(=O)N[C@@H](C(=O)N[C@@H]2C(=O)N3[C@@H]2SC(C)(C)[C@@H]3C(=O)O)c2ccccc2)c1OC(C)=O` [Substance 27, N-[L-2-(2,3-Diacetoxybenzoylamino)-propionyl]-ampicillin], for which the “inhibition spot diameter in agar diffusion test” value in assay [12] worked out at 8.5 mm; in assay [13] it was 7.5 mm; in assay [14] it was 14 mm; in assay [23], 1 mm; in assay [28], 7 mm. Besides, the “inhibition spot diameter in the agar diffusion test” value in [15] was found to be 22 mm; in assay [17], 30 mm; in assay [18] it was 22 mm; in [19], 17 mm; in assay [20] it was 37 mm; in assay [25], 19 mm. In addition, the “inhibition spot diameter in the agar diffusion test” value in assay [37] was 24 mm; in assay [26], 12 mm; in assay [27] it was 16 mm; in assay [38] it was 0 mm; in [33], 29 mm; in [34], 21 mm. Further, the entries for the “inhibition spot diameter in the agar diffusion test” value in assay [35] and in assay [36] were 30 mm and 10 mm, respectively. In addition, the “MIC values, microdilution test” value in assay [16] is 1.56 µg/mL (≈ 2.43 µM); in assay [21], 0.2 µg/mL (≈ 0.312 µM); in [22], 0.78 µg/mL (≈ 1.22 µM); in [24], 0.4 µg/mL (≈ 0.624 µM); in assay [39], 6.25 µg/mL (≈ 9.76 µM); in [29], 50 µg/mL (≈ 78 µM). For the same compound, the “MIC values, microdilution test” value in [40] is 6.25 µg/mL (≈ 9.76 µM); in assay [30] it was 3.12 µg/mL (≈ 4.87 µM); in assay [31], 50 µg/mL (≈ 78 µM); in assay [32], 0.4 µg/mL (≈ 0.624 µM); in [41] it was 0.4 µg/mL (≈ 0.624 µM).

On to `O=C(O)c1ccc(O)c(N=Cc2cccc(O)c2O)c1` [Substance 3], for which the “Growth areas” value in assay [1] was 0 mm; in [2] it was 32 mm; in assay [3], 18 mm; in [4], 28 mm; in [5], 22 mm; in assay [6], 0 mm. Further, the “Growth areas” value came out at 20 mm in [7]; 0 mm in assay [8]; 18 mm in assay [9]; 0 mm in [10]; 0 mm in [11].
